Source: ChEMBL document CHEMBL1144066, “Aurantosides D, E, and F: new antifungal tetramic acid glycosides from the marine sponge Siliquariaspongia japonica” (J Nat Prod, 1999)
Values after ≈ are worked out from the molar mass of the structure shown. Active and inactive are the calls of the source. The rule behind the calls is not given here.

Columns and labels:
Candida albicans [1] = test: Antifungal activity against Candida albicans; type: functional
Candida albicans [2] = test: Antifungal activity against Candida albicans at 2 ug/disk; type: functional; conditions: for zone of inhibition at 2 µg/disc: read-out: IZ
P388 = test: Cytotoxicity against mouse P388 cells; type: functional, cell-based
Aspergillus fumigatus [3] = test: Antifungal activity against Aspergillus fumigatus; type: functional
Aspergillus fumigatus [4] = test: Antifungal activity against Aspergillus fumigatus at 2 ug/disk; type: functional; conditions: read-out: IZ

Question: For `CO[C@@H]1[C@H](O[C@@H]2CO[C@@H](O[C@@H]3[C@@H](O)[C@H](O)CO[C@H]3N3C(=O)/C(=C(O)/C=C/C=C/C=C/C=C/C=C(Cl)/C=C/C=C/C=C(/C)Cl)C(=O)[C@@H]3CC(N)=O)[C@@H](O)[C@@H]2O)O[C@H](C)[C@H]1O`, which Activity (Candida albicans [1]) is on record?
Answer: inactive

Question: What about the Activity (Candida albicans [2]) of the same molecule?
Answer: inactive

Question: With `C\C(Cl)=C/C(Cl)=C/C=C/C=C/C=C/C=C/C(O)=C1\C(=O)[C@H](CC(N)=O)N([C@@H]2OC[C@@H](O)[C@H](O)[C@H]2O[C@@H]2OC[C@@H](O[C@@H]3O[C@H](C)[C@@H](O)[C@@H]3O)[C@@H](O)[C@@H]2O)C1=O` [AURANTOSIDE B] as the molecule, how does the MIC (Candida albicans [1]) read?
Answer: 0.63 µg/mL (≈ 0.784 µM)

Question: What about the IC50 (P388) of the same molecule?
Answer: > 5 µg/mL

Question: And the zone of inhibition at 2 µg/disc (Candida albicans [2])?
Answer: 11.8 mm

Question: And the MIC (Aspergillus fumigatus [3])?
Answer: 0.16 µg/mL (≈ 0.199 µM)

Question: What about the zone of inhibition at 2 µg/disc (Aspergillus fumigatus [4]) of the same molecule?
Answer: 17.2 mm

Question: With `CO[C@@H]1[C@H](O[C@@H]2CO[C@@H](O[C@@H]3[C@@H](O)[C@H](O)CO[C@H]3N3C(=O)/C(=C(O)/C=C/C=C/C=C/C=C/C=C(Cl)/C=C(\C)Cl)C(=O)[C@@H]3CC(N)=O)[C@@H](O)[C@@H]2O)O[C@H](C)[C@H]1O` [AURANTOSIDE A] as the molecule, how does the MIC (Candida albicans [1]) read?
Answer: 1.25 µg/mL (≈ 1.53 µM)

Question: And the IC50 (P388)?
Answer: > 5 µg/mL

Question: What about the zone of inhibition at 2 µg/disc (Candida albicans [2]) of the same molecule?
Answer: 11.3 mm

Question: And the MIC (Aspergillus fumigatus [3])?
Answer: 0.16 µg/mL (≈ 0.196 µM)

Question: What about the zone of inhibition at 2 µg/disc (Aspergillus fumigatus [4]) of the same molecule?
Answer: 18 mm

Question: How did the MIC (Candida albicans [1]) turn out when `CO[C@@H]1[C@H](O[C@@H]2CO[C@@H](O[C@@H]3[C@@H](O)[C@H](O)CO[C@H]3N3C(=O)/C(=C(O)/C=C/C=C/C=C/C=C/C=C(Cl)/C=C/C=C(/C)Cl)C(=O)[C@@H]3CC(N)=O)[C@@H](O)[C@@H]2O)O[C@H](C)[C@H]1O` [AURANTOSIDE E] was run?
Answer: 0.16 µg/mL (≈ 0.19 µM)

Question: And the IC50 (P388)?
Answer: 0.2 µg/mL (≈ 0.237 µM)

Question: What about the zone of inhibition at 2 µg/disc (Candida albicans [2]) of the same molecule?
Answer: 9.7 mm

Question: What about the MIC (Aspergillus fumigatus [3]) of the same molecule?
Answer: 0.04 µg/mL (≈ 0.0474 µM)

Question: And the zone of inhibition at 2 µg/disc (Aspergillus fumigatus [4])?
Answer: 13.6 mm

Question: Which IC50 (P388) does the source give for `C/C(Cl)=C/C=C/C(Cl)=C/C=C/C=C/C=C/C=C/C(O)=C1\C(=O)[C@H](CC(N)=O)N([C@@H]2OC[C@@H](O)[C@H](O)[C@H]2O[C@@H]2OC[C@@H](O[C@@H]3O[C@H](C)[C@@H](O)[C@@H]3O)[C@@H](O)[C@@H]2O)C1=O` [AURANTOSIDE D] here?
Answer: 0.2 µg/mL (≈ 0.241 µM)

Question: And the zone of inhibition at 2 µg/disc (Candida albicans [2])?
Answer: 9.5 mm

Question: And the zone of inhibition at 2 µg/disc (Aspergillus fumigatus [4])?
Answer: 11 mm
